Source: ChEMBL document CHEMBL3885881, “DrugMatrix”

Species on record: Rattus norvegicus
Assay: DrugMatrix - Regimen: Daily Repeat
Assay type: toxicity, organism-based, Sprague-Dawley
Parameters: regimen Daily Repeat, gender Male, age 6-8 weeks
Conditions: in vivo, po, route oral GAVAGE, […]; for ABSOLUTE BASOPHIL / ABSOLUTE EOSINOPHIL / ABSOLUTE LYMPHOCYTE / ABSOLUTE MONOCYTE / ABSOLUTE SEGMENTED NEUTROPHIL / BASOPHIL / EOSINOPHIL / ERYTHROCYTE COUNT / HEMATOCRIT / HEMOGLOBIN / LEUKOCYTE COUNT / LYMPHOCYTE / MEAN CORPUSCULAR HEMOGLOBIN / MEAN CORPUSCULAR HEMOGLOBIN CONCENTRATION / MEAN CORPUSCULAR VOLUME / MONOCYTE / NEUTROPHIL / NUCLEATED RED BLOOD CELLS / PLATELET COUNT: tissue Blood; for ALANINE AMINOTRANSFERASE / ALBUMIN / ALKALINE PHOSPHATASE / ASPARTATE AMINOTRANSFERASE / BLOOD UREA NITROGEN / CARBON DIOXIDE / CHLORIDE / CHOLESTEROL / CREATINE PHOSPHOKINASE / CREATININE / GLUCOSE / LACTATE DEHYDROGENASE / LIPASE / PHOSPHORUS / POTASSIUM / SODIUM / TOTAL BILIRUBIN / TOTAL PROTEIN / URIC ACID: tissue Plasma
[1] = 13 mg/kg, 120 h, dose level Low, time 5 day
[2] = 40 mg/kg, 72 h, dose level High, time 3 day
[3] = 40 mg/kg, 120 h, dose level High, time 5 day

`CN(C)c1nc(N(C)C)nc(N(C)C)n1` [ALTRETAMINE] was tested, and the “ABSOLUTE BASOPHIL” value [1] was 0 CELLS/uL, the “ABSOLUTE EOSINOPHIL” value [1] was 0 CELLS/uL and the “ABSOLUTE LYMPHOCYTE” value [1] was 9932 CELLS/uL. For the same compound, the “ABSOLUTE MONOCYTE” value [1] was 0 CELLS/uL, the “ABSOLUTE SEGMENTED NEUTROPHIL” value [1] was 334.67 CELLS/uL and the BASOPHIL [1] was 0%. The EOSINOPHIL [1] was 0%, the “ERYTHROCYTE COUNT” value [1] was 5.3 x10E6/uL and the HEMATOCRIT [1] was 32.5%. The HEMOGLOBIN [1] was 12.67 G/DL, the “LEUKOCYTE COUNT” value [1] was 10.27 x10E3/uL and the LYMPHOCYTE [1] was 96.33%. For the same compound, the “MEAN CORPUSCULAR HEMOGLOBIN” value [1] was 23.93 pg, the “MEAN CORPUSCULAR HEMOGLOBIN CONCENTRATION” value [1] was 38.97 G/DL and the “MEAN CORPUSCULAR VOLUME” value [1] was 61.4 fL. The MONOCYTE [1] was 0%, the NEUTROPHIL [1] was 3.67% and the “NUCLEATED RED BLOOD CELLS” value [1] was 0 /100WBC. The “PLATELET COUNT” value [1] was 759.33 x10E3/uL, the “ALANINE AMINOTRANSFERASE” value [1] was 60.67 u/L and the ALBUMIN [1] was 4.13 G/DL. The “ALKALINE PHOSPHATASE” value [1] was 323.67 u/L, the “ASPARTATE AMINOTRANSFERASE” value [1] was 87 u/L and the “BLOOD UREA NITROGEN” value [1] was 13.33 mg/dL. The “CARBON DIOXIDE” value [1] was 29.67 mmol/L, the CHLORIDE [1] was 98 MEQ/L and the CHOLESTEROL [1] was 69.67 mg/dL. For the same compound, the “CREATINE PHOSPHOKINASE” value [1] was 230.33 u/L, the CREATININE [1] was 0.15 mg/dL and the GLUCOSE [1] was 150 mg/dL. For the same compound, the “LACTATE DEHYDROGENASE” value [1] was 137.67 u/L, the LIPASE [1] was 22 u/L and the PHOSPHORUS [1] was 10.3 mg/dL. The POTASSIUM [1] was 5.84 MEQ/L, the SODIUM [1] was 143.3 MEQ/L and the “TOTAL BILIRUBIN” value [1] was 0.1 mg/dL. For the same compound, the “TOTAL PROTEIN” value [1] was 5.83 G/DL, the “URIC ACID” value [1] was 0.87 mg/dL and the “ABSOLUTE BASOPHIL” value [2] was 0 CELLS/uL. The “ABSOLUTE EOSINOPHIL” value [2] was 41 CELLS/uL, the “ABSOLUTE LYMPHOCYTE” value [2] was 13401 CELLS/uL and the “ABSOLUTE MONOCYTE” value [2] was 108.67 CELLS/uL. The “ABSOLUTE SEGMENTED NEUTROPHIL” value [2] was 749.33 CELLS/uL, the BASOPHIL [2] was 0% and the EOSINOPHIL [2] was 0.33%. For the same compound, the “ERYTHROCYTE COUNT” value [2] was 5.98 x10E6/uL, the HEMATOCRIT [2] was 37.43% and the HEMOGLOBIN [2] was 14.53 G/DL. For the same compound, the “LEUKOCYTE COUNT” value [2] was 14.3 x10E3/uL, the LYMPHOCYTE [2] was 93.67% and the “MEAN CORPUSCULAR HEMOGLOBIN” value [2] was 24.33 pg. The “MEAN CORPUSCULAR HEMOGLOBIN CONCENTRATION” value [2] was 38.83 G/DL, the “MEAN CORPUSCULAR VOLUME” value [2] was 62.7 fL and the MONOCYTE [2] was 0.67%. The NEUTROPHIL [2] was 5.33%, the “NUCLEATED RED BLOOD CELLS” value [2] was 0 /100WBC and the “PLATELET COUNT” value [2] was 1084 x10E3/uL. For the same compound, the “ALANINE AMINOTRANSFERASE” value [2] was 107.67 u/L, the ALBUMIN [2] was 4.17 G/DL and the “ALKALINE PHOSPHATASE” value [2] was 335.33 u/L. For the same compound, the “ASPARTATE AMINOTRANSFERASE” value [2] was 98.67 u/L, the “BLOOD UREA NITROGEN” value [2] was 12.33 mg/dL and the “CARBON DIOXIDE” value [2] was 26.33 mmol/L. The CHLORIDE [2] was 100.67 MEQ/L, the CHOLESTEROL [2] was 73 mg/dL and the “CREATINE PHOSPHOKINASE” value [2] was 457.67 u/L. For the same compound, the CREATININE [2] was 0.17 mg/dL, the GLUCOSE [2] was 160.67 mg/dL and the “LACTATE DEHYDROGENASE” value [2] was 170.67 u/L. It also gave an LIPASE [2] of 10.67 u/L, a PHOSPHORUS [2] of 10.97 mg/dL and a POTASSIUM [2] of 6.05 MEQ/L. The SODIUM [2] was 140.73 MEQ/L, the “TOTAL BILIRUBIN” value [2] was 0.2 mg/dL and the “TOTAL PROTEIN” value [2] was 5.73 G/DL. The “URIC ACID” value [2] was 1.97 mg/dL, the “ABSOLUTE BASOPHIL” value [3] was 0 CELLS/uL and the “ABSOLUTE EOSINOPHIL” value [3] was 0 CELLS/uL. For the same compound, the “ABSOLUTE LYMPHOCYTE” value [3] was 8752.67 CELLS/uL, the “ABSOLUTE MONOCYTE” value [3] was 0 CELLS/uL and the “ABSOLUTE SEGMENTED NEUTROPHIL” value [3] was 580.67 CELLS/uL. For the same compound, the BASOPHIL [3] was 0%, the EOSINOPHIL [3] was 0% and the “ERYTHROCYTE COUNT” value [3] was 5.98 x10E6/uL. For the same compound, the HEMATOCRIT [3] was 36.53%, the HEMOGLOBIN [3] was 14.1 G/DL and the “LEUKOCYTE COUNT” value [3] was 9.33 x10E3/uL. The LYMPHOCYTE [3] was 94.33%, the “MEAN CORPUSCULAR HEMOGLOBIN” value [3] was 23.67 pg and the “MEAN CORPUSCULAR HEMOGLOBIN CONCENTRATION” value [3] was 38.6 G/DL. For the same compound, the “MEAN CORPUSCULAR VOLUME” value [3] was 61.23 fL, the MONOCYTE [3] was 0% and the NEUTROPHIL [3] was 5.67%. The “NUCLEATED RED BLOOD CELLS” value [3] was 0 /100WBC, the “PLATELET COUNT” value [3] was 779.67 x10E3/uL and the “ALANINE AMINOTRANSFERASE” value [3] was 65.33 u/L. The ALBUMIN [3] was 4 G/DL, the “ALKALINE PHOSPHATASE” value [3] was 406 u/L and the “ASPARTATE AMINOTRANSFERASE” value [3] was 87.67 u/L. The “BLOOD UREA NITROGEN” value [3] was 12.67 mg/dL, the “CARBON DIOXIDE” value [3] was 34 mmol/L and the CHLORIDE [3] was 97.67 MEQ/L. The CHOLESTEROL [3] was 55.33 mg/dL, the “CREATINE PHOSPHOKINASE” value [3] was 274.33 u/L and the CREATININE [3] was 0.15 mg/dL. For the same compound, the GLUCOSE [3] was 151 mg/dL, the “LACTATE DEHYDROGENASE” value [3] was 133.67 u/L and the LIPASE [3] was 10 u/L. The PHOSPHORUS [3] was 10.63 mg/dL, the POTASSIUM [3] was 5.18 MEQ/L and the SODIUM [3] was 142.9 MEQ/L. For the same compound, the “TOTAL BILIRUBIN” value [3] was 0.17 mg/dL, the “TOTAL PROTEIN” value [3] was 5.77 G/DL and the “URIC ACID” value [3] was 0.47 mg/dL.
